Measurements from patent US20220249476A1, “MutL LOSS PREDICTS SENSITIVITY TO CDK4/6 INHIBITORS IN CANCER” (Baylor College of Medicine, priority 2018, published 2022).

Experiments:
MCF7 cells [1] = assay: FACS analysis for PCNA in MCF7 cells after fulvestrant treatment; type: cell-based, human; settings: MCF7 cells with stable knockdown of CETN2, NEIL2, ERCC1 and MLH1 relative to control cells; 100 nM fulvestrant
Procedure: (§1) FIGS. 17A-17E. Dysregulation of CETN2, NEIL2 and ERCC1 expression in ER+ breast cancer cells alters regulation of G1/S transition of the cell cycle. FIG. 17A & FIG. 17D) Histograms representing percentage of siScr, siCETN2, siNEIL2, siERCC1 and siMLH1 MCF7 cells that are Ki67 (FIG. 17A) and PCNA (FIG. 17D) positive after 48 hours of treatment with 100 nM of fulvestrant. Columns represent the mean and error bars the standard deviation. Student's t-test determined p-values. FIG. 17B-FIG. 17C) Boxplots indicating levels of CDK4 mRNA and PCNA protein level in CETN2, ERCC1, NEIL2, PRKDC proficient (CEN+PRKDCwt) and deficient (CEN-PRKDCmut) ER+ breast tumors based on values from microarray and RPPA data from TCGA. Wilcoxon Rank Sum test determined p-values. FIG. 17E) Histograms depicting percent growth inhibition in fulvestrant and abemaciclib (CDK4/6i)-treated MCF7 cells stably selected for RNAi-mediated knockdown of control, CETN2, ERCC1 or NEIL2, relative to vehicle treated cells. […] Student's t-test determined p-values.
(§2) RNA from cell lines was extracted using the Qiagen RNeasy Mini Kit (CAT#74106) and converted to cDNA using Bio-Rad Reverse Transcriptase iScript (CAT#TX1708891BAY), both following manufacturers' instructions. cDNA was quantified by qPCR using Bio-Rad SsoAdvanced Universal SYBR Green supermix (CAT#17525272) at the manufacturers specifications. […]

MCF7 cells [2] = assay: Growth assay (Alamar blue) in MCF7 cells with knockdown of DDR genes; type: cell-based, human; settings: for sensitivity (growth inhibition relative to vehicle treated cells): 100 nM fulvestrant, 1 μM Palbociclib
Procedure: (§3) ZR75.1 and MCF7 parental cells were from ATCC, 2015 and 2017 respectively, and tested for mycoplasma contamination upon arrival using the Lonza Mycoalert Plus Kit (CAT# LT07-710) as per the manufacturer's instructions, and annually since. Both lines were maintained in RPMI 1640 1X w/ L-glutamine and 1% Penicillin/Streptomycin (Sigma-Aldrich, CAT#P4333—100 mL). Cell lines used for experiments were <20 passages. Transient transfections with esiRNA (Sigma-Aldrich) towards human NEIL2 (CAT#EHU158461), CETN2 (CAT#EHU137031), ERCC1 (CAT#EHU156971), RAD23B (CAT#EHU145881) and POLM (CAT#SASI_Hs02_003344553), or scrambled control used at 50 nmoles/L each were delivered using Polypluys jetPRIME® transfection reagent (CAT#114-07) as per the manufacturer's instructions. Cells were plated for experiments 48 hrs after transfection. Stable selection with puromycin after infection with lentivirus harboring RNAi oligos (ABM) against human NEIL2 (CAT#i014980a), CETN2 (CAT#i004479a), and ERCC1 (CAT#i007023a) or scrambled control (CAT#i000238c) was conducted using manufacturer's protocol. Growth assays were repeated independently in triplicate as previously reported (50) using Alamar blue to detect cell viability. Final readings were between 4-6 days after initial drug treatment and fold change plotted for analysis. Fulvestrant(Fisher Scientific CAT#506242), 4-OHT(Sigma-Aldrich CAT#H7904), Palbociclib (ThermoFisher CAT#508548) and Abemaciclib (ThermoFisher CAT#NC0577560), dissolved in DMSO, and β-estradiol (Sigma-Aldrich CAT#E2758-1G), dissolved in water, at 10 mmoles/L were stored long term at −80 C with working stocks at −20 C. Cells were treated 24 hours after plating with fresh drug added every 48 hrs until the end of the experiment. Estradiol addition experiments were conducted in phenol red-free DMEM with 10% charcoal stripped serum.

MCF7 cells [3] = assay: Ki67 immunofluorescence in MCF7 cells before and after fulvestrant treatment; type: cell-based, human; settings: siCETN2, siNEIL2, siERCC1 MCF7 cells vs siScr control; 100 nM fulvestrant, 48 hours
Procedure: as §1, §2

ZR-75 cells = assay: Growth assay (Alamar blue) in ZR-75 cells with knockdown of DDR genes; type: cell-based, human; settings: siCETN2, siNEIL2 and siERCC1 ZR-75 cells (transient siRNA) vs siScr; media containing full serum
Procedure: as §3, with “Fulvestrant(Fisher Scientific CAT#506242), 4-OHT(Sigma-Aldrich CAT#H7904), Palbociclib (ThermoFisher CAT#508548) and Abemaciclib (ThermoFisher CAT#NC0577560), dissolved in DMSO, and β-estradiol (Sigma-Aldrich CAT#E2758-1G), dissolved in water, at 10 mmoles/L were stored long term at −80 C with working stocks at −20 C. Cells were treated 24 hours after plating with fresh drug added every 48 hrs until the end of the experiment. Estradiol addition experiments were conducted in phenol red-free DMEM with 10% charcoal stripped serum.” left out

ER+ PDX lines (BCaPE) = settings: four CENMP- PDX lines compared with three CENMP+ lines; p=0.02; cited from earlier work

| Structure (SMILES) | PCNA positivity after treatment (MCF7 cells [1]) | growth phenotype under treatment (MCF7 cells [2]; MCF7 cells stably selected with lentiviral RNAi against CETN2, NEIL2, ERCC1) | growth response to treatment (MCF7 cells [2]; MCF7 cells with siRNA knockdown of negative control genes RAD23B and POLM) | sensitivity (growth inhibition relative to vehicle treated cells) (MCF7 cells [2]; MCF7 cells with stable knockdown of CETN2, NEIL2 or ERCC1) | sensitivity (growth inhibition relative to vehicle treated cells) (MCF7 cells [2]; control MCF7 cells (scrambled RNAi)) | growth inhibition in response to treatment (MCF7 cells [2]; siCETN2, siNEIL2 and siERCC1 MCF7 cells (transient siRNA) vs siScr, media containing full serum) | Ki67 inhibition in response to treatment (MCF7 cells [3]) | growth inhibition in response to treatment (ZR-75 cells) | tumor viability after treatment (AUC) (ER+ PDX lines (BCaPE)) |
| --- | --- | --- | --- | --- | --- | --- | --- | --- | --- |
| C[C@]12CC[C@@H]3c4ccc(O)cc4C[C@@H](CCCCCCCCC[S+]([O-])CCCC(F)(F)C(F)(F)F)[C@H]3[C@@H]1CC[C@@H]2O (stereo partly drawn) [fulvestrant, Fulvestrant] | Increased PCNA positivity | Fulvestrant-independent | did not alter growth response | resistance | comparable sensitivity | significant lack of growth inhibition | profound lack of Ki67 inhibition | significant lack of growth inhibition |  |
| CC(C)(C#N)c1cc(Cn2cncn2)cc(C(C)(C)C#N)c1 [anastrozole] |  |  |  |  |  |  |  |  | significantly higher tumor viability |
